Measurements reported in patent US11738095B2, “Cyanine-containing compounds for cancer imaging and treatment” (Emory University, priority 2007, dated 2023).
Read-outs that look alike come from different tables or passages of the source.

Assays:
[1] = test system: human cancer cells: LNCaP, ARCaPE, ARCaPM, C4-2, PC-3, HepG2, MG63, MCF-7, RCC, T-24, HeLa, K562, H358; test: uptake of MHI-148 by human cancer cells in culture (FIG. 1); assay type: cell-based; conditions: 100 μM, two hours, T-medium with 5% fetal bovine serum, inverted microscope
Method: (§1) All the cells were cultured with 100 μM MHI-148 in basal media (T-medium with 5% fetal bovine serum and 1% antibiotics) for two hours and were imaged under an inverted microscope. These conditions are the usual conditions used here unless otherwise specified.

[2] = test system: normal prostate fibroblasts, marrow stromal cells BMC, normal vascular endothelial cells VEC, mouse macrophage RAW cells; test: uptake of MHI-148 by normal human or mouse cells in culture (FIG. 1); assay type: cell-based; conditions: 100 μM, two hours
Method: as §1

[3] = test system: normal prostate epithelial cells NPE and normal human skin epithelial cells HaCaT; test: uptake of MHI-148 by normal epithelial cells in culture (FIG. 1); assay type: cell-based; conditions: 100 μM, two hours
Method: as §1

[4] = test system: human ARCaPM prostate cancer cells; test: imaging of MHI-148 tagged ARCaPM cells in test tubes (FIG. 2A); assay type: cell-based; conditions: 1, 10 and 100 μM, incubation 2 hours, excitation 720 nm, emission 850 nm
Method: (§2) After incubation for 2 hours, cells were washed 3 times with PBS, harvested by centrifuge and imaged. One million of the MHI-148 tagged ARCaPM cells with different concentrations were injected subcutaneously in the back of the mouse and imaged at the same time (B). […] All the in vitro and in vivo imaging was performed using a Kodak multimodal-imaging system IS2000MM (Kodak) equipped with an excitation bandpass filter at 720 nm and an emission at 850 nm. Exposure time was 30 s per image. The images were analyzed using the imaging station IS2000MM software (Kodak 1D Image Analysis Software; Kodak).

[5] = test system: human ARCaPM prostate cancer cells; test: imaging of MHI-148 tagged ARCaPM cells injected into mice (FIG. 2B, C); assay type: in vivo, mouse; conditions: one million ARCaPM cells tagged with 10 uM MHI-148
Method: as §2

[6] = distribution of MHI-148 in normal mice, in vivo and ex vivo organ imaging (FIG. 3); design: species or system mouse; conditions: for fluorescence of isolated liver, kidney and testis: Xenogen
Method: MHI-148 (5 nmol) was given by tail vein injection and the MHI-148 distribution followed at 2, 6, and 96 hrs. At the end of this study, mice were sacrificed at 6 or 80 hrs after MHI-148 tail vein administration. […] The isolated tissues and organs excised from mice at 6 hours and 80 hours after receiving 5 nmol MHI-148 were also imaged by the Xenogen machine and the signals were compared by fluorescence intensity.

[7] = test system: subcutaneous ARCaPM, intratibial C4-2, H358 and K562 tumors; test: imaging of pre-established tumors in live mice with MHI-148 (FIG. 4); assay type: in vivo, mouse
Method: Subcutaneous ARCaPM and intratibial C4-2 tumors were established in live mice prior to the administration of MHI-148. The tumors measured about 0.5-1.0 cm in diameter at the time of imaging. 10 nmol of MHI-148 was given to mice through tail vein and imaged using Kodak multimodal-imaging system. Human lung (H358) and leukemia (K562) cancer cells were injected subcutaneously into one side of the shoulder of mice. When the tumors were about 1-2 cm in diameter, 10 nmol MHI-148 was given through tail vein and tumor images were taken at 96 hrs after MHI-148 administration.

[8] = test system: human ARCaPE, ARCaPM, and C4-2 tumors; test: detection of multiple tumors in one mouse with MHI-148 (FIG. 5); assay type: in vivo; conditions: 10 nmol tail vein, 96 hrs
Method: A mouse had 5 pre-established human ARCaPE, ARCaPM, and C4-2 tumors in the back by subcutaneous injection of tumor cells. Four tumors were measured with 0.2-1.0 cm in diameter and one tumor was not detectable by visualization at the time of NHI-148 administration. […] Visual and palpation techniques could only detect four tumors, while MHI-148 (10 nmol), after tail vein administration, clearly gained access to all tumors in the live mouse and allowed tumor images to be detected in all five tumors.

C4-2 tumor = test: imaging of live and necrotic intratibial C4-2 tumors with MHI-148 (FIG. 6); assay type: in vivo, mouse; conditions: 10 nmol tail vein, imaged after 48 hrs
Method: C4-2 cells were injected into both sides of tibia of one mouse. When one tumor was developed to size with visible necrosis and the other tumor still in the fast growing phase, 10 nmol MHI-148 was given through tail vein. After 48 hrs, the mouse was imaged. […] The histopathology of the tumors was confirmed by the H/E stain (see upper right panel).

Cancer cell = test: CellTiter 96 Aqueous One Solution Cell Proliferation Assay (FIG. 7); assay type: cell-based; conditions: different concentrations, 48 hrs, T-medium 5% FBS
Method: Cancer cell were plated in 96-well plates in T-medium containing 5% FBS with different concentrations of MHI-148 for 48 hrs of incubation. Cell numbers were measured using CellTiter 96 Aqueous One Solution Cell Proliferation Assay (Promega, Madison, Wis.).

[9] = test system: spontaneously developed prostate tumor; test: imaging of spontaneous prostate tumor in TRAMP transgenic mouse with MHI-148 (FIG. 8); assay type: in vivo
Excerpt: 10 nmol of MHI-148 was given to a 46 week-old TRAMP transgenic mouse with spontaneously developed prostate tumor mass and imaged after 4 hrs after MHI-148 injection (panel A). […] Surgical dissection of this mouse confirmed […] was present (panel C).

[10] = photostability of MHI-148; assay type: physicochemical
[11] = test system: spontaneous prostate tumor in a TRAMP mouse; test: imaging of spontaneous TRAMP prostate tumor, fresh and after fixation (FIG. 16B, C); assay type: in vivo; conditions: TRAMP mouse spontaneous prostate tumors, FIG. 16 legend
Method: NIR imaging studies were performed to assess pharmacokinetics of the IR783 in vivo. […] This mouse was injected i.p with 0.2 μg/kg IR783 at 0 hrs. […] The dye retention in formalin fixed tissues can be as long as several weeks (data not shown).

[12] = test system: human cancer cells: ARCaPM, C4-2, PC-3, HepG2, MCF-7, RCC, T-24, HeLa, K562, H358; test: uptake of IR780 by human cancer cells in culture (FIG. 10); assay type: cell-based; conditions: 20 uM, 30 minutes, confocal microscope
Method: The uptake of IR780 by human cancer cells in culture was also studied. […] All the cells were cultured with 20 uM IR-780 in basal media (T-medium with 5% fetal bovine serum and 1% antibiotics) for 30 minutes and were imaged under confocal microscope.

[13] = test system: normal prostate fibroblasts (NPF), normal prostate epithelial cells (NPE), marrow stromal cells BMC; test: uptake of IR780 by normal human cells in culture (FIG. 10); assay type: cell-based
ARCaPM cells = test: confocal imaging of IR780 uptake and localization in ARCaPM cells (FIG. 11, 12); assay type: cell-based, human
Method: In FIG. 11, ARCaPM Cells were plated on live-cell imaging chambers from World Precision Instrument (Sarasota, Fla.) overnight. Cells were treated with IR-780 with different concentrations and were imaged using a Perkin-Elmer Ultraview ERS spinning disc confocal microscope. This system was mounted on a Zeiss Axiovert 200 m inverted microscope equipped with a 37° C. stage warmer, incubator, and CO2 perfusion. A x63 or x100 Zeiss oil objective (numerical aperture, 1.4) was used for all images and a Z-stack was created using the attached piezoelectric z-stepper motor. The 633 nm laser line of an […] (set at 60% power) was used to excite the IR-780 organic dye. For each comparison, the exposure time and laser intensity was kept identical for accurate intensity measurement. Pixel intensity was quantitated using Metamorph 6.1 (Universal Imaging, Downingtown, Pa.) and the mean pixel intensity was generated as grey level using the Region Statistics feature on the software.

[14] = test system: subcutaneous HepG2, C4-2, H358, HeLa, MCF-7 and ARCaPM tumors; test: imaging of subcutaneous human tumors in mice with IR780 (FIG. 13); assay type: in vivo, mouse; conditions: 5 n mol tail vein, tumors 0.5-1.0 cm
Method: Subcutaneous HepG2 (human liver cancer), C4-2 (human prostate androgen-independent and metastatic cancer), H358 (human lung cancer), HeLa (human cervical cancer), MCF-7 (human breast cancer) and ARCaPM (a highly bone and soft tissue metastatic human prostate cancer) cancers were established in live mice prior to the administration of IR-780. The tumor xenografts were measured about 0.5-1.0 cm in diameter at the time of imaging. 5 n mol of IR-780 were given to mice through tail vein and imaged using Kodak multimodal-imaging system. The distribution of IR-780 in tumor tissues was conformed by imaging of frozen sections under confocal microscope. The histopathology of the tumor was confirmed by H/E staining of the frozen tissue specimens and DAPI stained cell nuclei.

[15] = Method: Mice were injected with 20 μg/Kg of IR783 and IR780 (which was 100× of the imaging dose which was 0.2 μg/Kg) and results were compared for a 28 day period. […] Zero grams means the mouse died. ICG is a FDA approved dye used for several diagnostic purposes. ICG is considered to be nontoxic. ICG is used here as a measure of the toxicity of the tested compounds.
Toxicity test of dye based on body weight gained during the treatment period from 0 to 14 days.

[16] = tail vein injection, data not shown
[17] = FDA approved dye; cited from earlier work
[18] = dose 1X (imaging dose 0.2 μg/Kg), 0 day

CC1(C)C(/C=C/C2=C(Cl)C(=C/C=C3/N(CCCCCC(=O)O)c4ccccc4C3(C)C)/CCC2)=[N+](CCCCCC(=O)O)c2ccccc21.[Br-] [MHI-148]
uptake of MHI-148 [1]: significant uptake | uptake of MHI-148 [2]: failed to yield any time- or concentration-dependent uptake | uptake of MHI-148 [3]: low uptake | images of MHI-148 tagged ARCaPM cells in test tubes [4]: intense images can be readily detected | image of tagged cells injected into mouse tibia [5]: can be seen in the intratibial space | fluorescence of isolated liver, kidney and testis ([6]; 5 nmol tail vein, 6 hrs post administration): positive | fluorescence of isolated liver, kidney and testis ([6]; 5 nmol tail vein, 80 hrs post administration): void of any fluorescence signaling | time to clearance from normal organs (liver, kidney, testis, seminal vesicles) ([6]; live animals): ≤ 96 h | MHI-148 uptake by the liver and kidney ([6]; normal mice, 5 nmol tail vein, 2 and 6 hrs): can be detected | MHI-148 in live mice and dissected mouse tissues ([6]; normal mice, 5 nmol tail vein, by 96 hrs): no detectable MHI-148 | tumor images ([7]; 10 nmol tail vein, H358 and K562 images at 96 hrs): Clear tumor associated images are seen | fate in tumors versus host ([7]; 96 hrs after administration): accumulated in tumors | size of smallest tumor imaged [8]: < 2 mm^3 | tumors imaged ([8]; mouse with 5 tumors): All five tumors were imaged | uptake by live C4-2 tumor (right tibia) (C4-2 tumor): shown to uptake MHI-148 | uptake by necrotic or dead tumor cells (left side) (C4-2 tumor): failed to uptake MHI-148 | cancer cell growth (cell numbers) (Cancer cell): inhibition of cancer growth in vitro | imaging of prostate tumor mass ([9]; 46 week-old TRAMP mouse, 10 nmol, 4 hrs after injection): showed clear tumor in situ | signal in mouse without tumor ([9]; young age TRAMP mouse which harbored no tumor): no signal was detected | photostability [10]: relatively photostable | stability of dye in formalin fixation [11]: stable in formalin fixation for weeks

CCCN1/C(=C/C=C2\CCCC(/C=C/C3=[N+](CCC)c4ccccc4C3(C)C)=C2Cl)C(C)(C)c2ccccc21.[I-] [IR780]
uptake of IR-780 [12]: significant uptake | uptake of IR-780 ([13]; 20 uM, 30 minutes, confocal microscope): very low uptake | uptake by normal prostate epithelial cells ([13]; data not shown): did not take up the dye | subcellular localization (ARCaPM cells; co-stained with mitochondrial tracker or lysosome tracker): co-localized with mitochondrial, lysomomal and cytoplasmic compartments | effect of BSP (organic anion transporter inhibitor) on uptake (ARCaPM cells; data not shown): blocked by BSP | dependence of uptake (ARCaPM cells; different concentrations, live-cell confocal imaging): time- and concentration-dependent uptake | tumor images [14]: clear tumor images can be detected | body weight [15, 18]: 19.00 g | body weight ([15]; dose 1X, 1 day): 19.02 g | body weight ([15]; dose 1X, 2 day): 19.71 g | body weight ([15]; dose 1X, 3 day): 20.01 g | body weight ([15]; dose 1X, 4 day): 20.32 g | body weight ([15]; dose 1X, 5 day): 20.56 g | body weight ([15]; dose 1X, 6 day): 20.97 g | body weight ([15]; dose 1X, 7 day): 21.81 g | body weight ([15]; dose 1X, 14 day): 23.56 g | body weight ([15]; dose 1X, 28 day): 24.44 g | body weight ([15]; dose 10X, 0 day): 20.71 g | body weight ([15]; dose 10X, 1 day): 20.69 g | body weight ([15]; dose 10X, 2 day): 20.70 g | body weight ([15]; dose 10X, 3 day): 21.03 g | body weight ([15]; dose 10X, 4 day): 21.24 g | body weight ([15]; dose 10X, 5 day): 21.89 g | body weight ([15]; dose 10X, 6 day): 22.00 g | body weight ([15]; dose 10X, 7 day): 22.56 g | body weight ([15]; dose 10X, 14 day): 24.00 g | body weight ([15]; dose 10X, 28 day): 24.56 g | body weight ([15]; dose 100X (20 μg/Kg), 0 day): 20.14 g | body weight ([15]; dose 100X, 1 day, zero grams means the mouse died): 0 g | body weight ([15]; dose 100X, 2 day, zero grams means the mouse died): 0 g | body weight ([15]; dose 100X, 3 day, zero grams means the mouse died): 0 g | body weight ([15]; dose 100X, 4 day, zero grams means the mouse died): 0 g | body weight ([15]; dose 100X, 5 day, zero grams means the mouse died): 0 g | body weight ([15]; dose 100X, 6 day, zero grams means the mouse died): 0 g | body weight ([15]; dose 100X, 7 day, zero grams means the mouse died): 0 g | body weight ([15]; dose 100X, 14 day, zero grams means the mouse died): 0 g | body weight ([15]; dose 100X, 28 day, zero grams means the mouse died): 0 g | uptake by normal mouse tissues [16]: failed to uptake IR780

CC1(C)C(/C=C/C=C/C=C/C=C2\N(CCCCS(=O)(=O)[O-])c3ccc4ccccc4c3C2(C)C)=[N+](CCCCS(=O)(=O)[O-])c2ccc3ccccc3c21.[Na+] [ICG, reference compound]
body weight [15, 18]: 20.43 g | body weight ([15]; dose 1X, 1 day): 20.49 g | body weight ([15]; dose 1X, 2 day): 20.51 g | body weight ([15]; dose 1X, 3 day): 21.01 g | body weight ([15]; dose 1X, 4 day): 21.43 g | body weight ([15]; dose 1X, 5 day): 22.00 g | body weight ([15]; dose 1X, 6 day): 22.34 g | body weight ([15]; dose 1X, 7 day): 22.96 g | body weight ([15]; dose 1X, 14 day): 23.87 g | body weight ([15]; dose 1X, 28 day): 25.00 g | toxicity (general reputation) [17]: nontoxic
